From BindingDB's records for doi:10.1021/jm970211n (University of Michigan, 1997)

Experiment: Inhibition of angiotensin I converting enzyme in silico

| SMILES | IC50 [nM] |
| --- | --- |
| O=C(S[C@@H]1CCC[C@@H]1C(=O)N1CCC[C@H]1C(=O)O)c1ccccc1 | 63.1 |
| O=C(O)Cn1c(=O)n2n(c1=O)C(C(=O)O)C=CC2 (stereo unspecified) | 3.16 |
| O=C(O)CCc1cc(O)c2n(c1=O)[C@H](C(=O)O)CC2 | 31.6 |
| O=C(O)[C@@H]1C=CCn2c(=O)n(CS)c(=O)n21 | 2510 |
| CC(NP(=O)(O)CCc1ccccc1)C(=O)N1CCCC1C(=O)O (stereo unspecified) [1-hydroxy-1-phenylethyl-phosphinoylamino]-propionyl-pyrrolidine-2-carboxylic acid] | 25.1 |
| O=C(O)[C@@H]1CCCN1C(=O)[C@@H]1CC[C@H]1S | 158 |
| CC1(CS)C(=O)N2CCCC(C(=O)O)N2C1=O (stereo unspecified) | 3160 |
| CC(NP(=O)(O)O)C(=O)C1CCCC1C(=O)O (stereo unspecified) | 5.01 |
| CC(NC(=O)C1CCCCC1S)C(=O)N1CCCC1C(=O)O (stereo unspecified) | 10 |
| O=C(O)[C@@H]1CC2(CN1C(=O)CP(=O)(O)CCCCc1ccccc1)SCCS2 | 12.6 |
| C[C@H](NC(CCC(=O)Nc1ccc(I)cc1)C(=O)O)C(=O)N1CCC[C@H]1C(=O)O (stereo partly specified) | 0.794 |
